# Source: patent publication US8598344B2, “CDKI pathway inhibitors and uses thereof” (Senex Biotechnology, priority 2009, dated 2013)
# How the values were obtained:
# Experiment in all cases: KinomeScan competition binding assay
# Conditions in all cases: 10 μM compound
# CLK1 = target: T1, CLK1 (Homo sapiens, UniProt P49759)
# T1 construct: purchased KinomeScan, a division of Ambit Biosciences
# Excerpt: (§1) This similarity led us to test SNX14 for the ability to inhibit 285 kinases, using the services of KinaseProfiler of Millipore Corporation (285 kinases). […] The KINOMEscan assay has been described in detail in Fabian et al., Nat. Biotechnol. 23: 329 (2005) and Karaman et al., Nat. Biotechnol. 26: 127 (2008).
# (§2) The KinomeScan assay is based on a competition binding assay that quantitatively measures the ability of a compound to compete with an immobilized, ATP site directed ligand. The assay is performed by combining three components: DNA-tagged kinase; immobilized ligand; and a test compound. The ability of the test compound to compete with the immobilized ligand is measured via quantitative PCR of the DNA tag. […] The CDKs tested by Millipore for inhibition with SNX14 included CDK1, CDK2, CDK3, CDK5, CDK7 and CDK9; none of these were inhibited to less than 49 percent of control (POC) activity. The CDKs tested by KinomeScan for the effect of Compound 1 included CDK2, CDK3, CDK4, CDK5, CDK7, CDK8, CDK9 and CDK19; aside from CDK8 and CDK19, the strongest inhibited CDK was CDK7 (33% POC binding). To determine the inhibition of which kinases correlates with the biological activity of SNX2-class compounds, we tested eight additional compounds of the SNX2 family, which gave different IC50 values in the cellular assays, for the ability to affect 24 kinases that were most susceptible to compound 1, through the services of KinomeScan. […] We have also determined the binding constant (Kd) for SNX14, compound 1, compound 20, compound 26, compound 43 and compound 14 in kinase assays for CDK8 and CDK19 (Table 1).
# EGFR (G719C) = target: T2, EGFR (G719C) (Homo sapiens, UniProt P00533, G719C)
# T2 construct: purchased KinomeScan, a division of Ambit Biosciences
# Excerpt: as §1, §2
# HIPK2 = target: T3, HIPK2 (Homo sapiens, UniProt Q9H2X6)
# T3 construct: purchased KinomeScan, a division of Ambit Biosciences
# Excerpt: as §1, §2
# CIT = target: T4, CIT (Homo sapiens, UniProt O14578)
# T4 construct: purchased KinomeScan, a division of Ambit Biosciences
# T4 sequence (O14578 whole entry): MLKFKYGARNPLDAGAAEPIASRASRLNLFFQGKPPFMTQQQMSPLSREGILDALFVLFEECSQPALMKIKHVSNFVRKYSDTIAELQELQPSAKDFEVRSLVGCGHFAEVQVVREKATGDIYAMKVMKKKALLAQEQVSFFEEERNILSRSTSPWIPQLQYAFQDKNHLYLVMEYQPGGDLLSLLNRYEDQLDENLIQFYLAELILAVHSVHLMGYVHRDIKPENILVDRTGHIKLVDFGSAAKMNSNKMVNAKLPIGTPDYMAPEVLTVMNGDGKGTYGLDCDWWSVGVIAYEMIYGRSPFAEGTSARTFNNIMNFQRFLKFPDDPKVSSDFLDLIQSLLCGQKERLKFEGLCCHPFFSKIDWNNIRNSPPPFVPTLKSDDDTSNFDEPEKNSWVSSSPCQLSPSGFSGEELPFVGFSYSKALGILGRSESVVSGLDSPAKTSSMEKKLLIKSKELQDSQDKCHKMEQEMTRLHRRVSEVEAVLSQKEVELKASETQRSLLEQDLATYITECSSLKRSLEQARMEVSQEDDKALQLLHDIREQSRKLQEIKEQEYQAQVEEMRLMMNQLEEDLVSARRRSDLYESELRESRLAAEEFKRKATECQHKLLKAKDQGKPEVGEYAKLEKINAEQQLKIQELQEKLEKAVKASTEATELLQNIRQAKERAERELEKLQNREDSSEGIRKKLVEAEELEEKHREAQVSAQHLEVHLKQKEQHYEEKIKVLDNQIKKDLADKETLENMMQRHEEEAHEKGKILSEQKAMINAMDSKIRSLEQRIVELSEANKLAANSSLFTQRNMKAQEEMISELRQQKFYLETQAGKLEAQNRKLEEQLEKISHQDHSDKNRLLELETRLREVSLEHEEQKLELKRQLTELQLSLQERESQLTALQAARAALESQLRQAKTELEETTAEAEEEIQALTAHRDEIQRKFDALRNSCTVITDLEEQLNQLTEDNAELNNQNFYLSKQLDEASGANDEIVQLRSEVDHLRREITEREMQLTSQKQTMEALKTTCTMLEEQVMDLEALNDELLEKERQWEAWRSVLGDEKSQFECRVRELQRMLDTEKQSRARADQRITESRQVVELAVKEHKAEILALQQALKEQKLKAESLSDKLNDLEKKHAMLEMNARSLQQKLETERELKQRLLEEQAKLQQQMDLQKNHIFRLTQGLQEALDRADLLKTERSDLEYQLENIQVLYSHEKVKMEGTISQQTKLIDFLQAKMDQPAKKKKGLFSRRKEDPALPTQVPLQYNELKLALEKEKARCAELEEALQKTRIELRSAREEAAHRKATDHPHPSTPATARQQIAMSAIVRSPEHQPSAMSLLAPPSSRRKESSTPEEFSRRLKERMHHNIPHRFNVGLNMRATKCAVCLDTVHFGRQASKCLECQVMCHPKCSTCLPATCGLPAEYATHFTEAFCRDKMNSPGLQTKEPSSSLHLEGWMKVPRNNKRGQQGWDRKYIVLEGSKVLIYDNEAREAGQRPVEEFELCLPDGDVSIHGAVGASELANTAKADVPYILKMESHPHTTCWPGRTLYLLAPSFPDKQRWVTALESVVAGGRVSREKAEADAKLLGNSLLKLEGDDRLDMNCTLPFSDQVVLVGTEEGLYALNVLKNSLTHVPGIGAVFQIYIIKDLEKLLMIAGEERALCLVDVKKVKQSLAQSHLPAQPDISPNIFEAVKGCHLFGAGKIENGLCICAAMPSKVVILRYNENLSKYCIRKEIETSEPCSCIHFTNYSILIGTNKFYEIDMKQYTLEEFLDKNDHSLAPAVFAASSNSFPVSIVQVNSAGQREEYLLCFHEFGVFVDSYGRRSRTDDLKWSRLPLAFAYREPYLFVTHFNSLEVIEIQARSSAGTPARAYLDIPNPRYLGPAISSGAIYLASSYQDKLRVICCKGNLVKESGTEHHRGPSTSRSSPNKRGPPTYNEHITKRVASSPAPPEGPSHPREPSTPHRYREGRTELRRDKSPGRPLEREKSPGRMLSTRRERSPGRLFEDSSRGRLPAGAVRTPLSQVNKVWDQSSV
# Excerpt: as §1, §2
# MEK3 = target: T5, MEK3 (Homo sapiens, UniProt P46734)
# T5 construct: purchased KinomeScan, a division of Ambit Biosciences
# T5 sequence (P46734 1-347): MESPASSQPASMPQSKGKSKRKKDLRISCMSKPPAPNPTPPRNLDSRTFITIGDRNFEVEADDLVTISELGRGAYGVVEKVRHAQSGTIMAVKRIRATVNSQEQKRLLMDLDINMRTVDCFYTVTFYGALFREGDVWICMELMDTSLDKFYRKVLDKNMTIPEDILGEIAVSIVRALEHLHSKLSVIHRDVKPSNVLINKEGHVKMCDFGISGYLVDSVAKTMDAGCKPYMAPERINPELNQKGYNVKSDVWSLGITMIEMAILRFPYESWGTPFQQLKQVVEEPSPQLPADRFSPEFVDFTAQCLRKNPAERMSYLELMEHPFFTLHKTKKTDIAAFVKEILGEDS
# Excerpt: as §1, §2
# MAP4K2 = target: T6, MAP4K2 (Homo sapiens, UniProt Q12851)
# T6 construct: purchased KinomeScan, a division of Ambit Biosciences
# T6 sequence (Q12851 1-820): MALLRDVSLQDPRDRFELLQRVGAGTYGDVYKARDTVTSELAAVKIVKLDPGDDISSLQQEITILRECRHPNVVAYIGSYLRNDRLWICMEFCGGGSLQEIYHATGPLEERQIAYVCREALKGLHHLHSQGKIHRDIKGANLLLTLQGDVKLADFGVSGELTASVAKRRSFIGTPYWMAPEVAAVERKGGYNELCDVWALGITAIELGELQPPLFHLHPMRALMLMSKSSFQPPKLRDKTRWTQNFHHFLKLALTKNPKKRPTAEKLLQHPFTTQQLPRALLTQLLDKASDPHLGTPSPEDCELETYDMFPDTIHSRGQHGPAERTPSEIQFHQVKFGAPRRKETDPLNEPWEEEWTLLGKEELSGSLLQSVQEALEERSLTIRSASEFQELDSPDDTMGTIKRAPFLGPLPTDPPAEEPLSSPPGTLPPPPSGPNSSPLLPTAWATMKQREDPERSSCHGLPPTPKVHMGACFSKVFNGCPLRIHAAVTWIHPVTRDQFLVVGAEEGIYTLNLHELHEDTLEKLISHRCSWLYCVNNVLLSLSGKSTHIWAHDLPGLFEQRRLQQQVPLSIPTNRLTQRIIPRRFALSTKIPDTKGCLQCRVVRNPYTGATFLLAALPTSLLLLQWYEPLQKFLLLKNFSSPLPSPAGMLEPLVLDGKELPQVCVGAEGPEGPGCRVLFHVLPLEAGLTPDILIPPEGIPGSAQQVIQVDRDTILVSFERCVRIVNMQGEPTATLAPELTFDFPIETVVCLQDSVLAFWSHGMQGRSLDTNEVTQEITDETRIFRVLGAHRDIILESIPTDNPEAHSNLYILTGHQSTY
# Excerpt: as §1, §2
# HIPK3 = target: T7, HIPK3 (Homo sapiens, UniProt Q9H422)
# T7 construct: purchased KinomeScan, a division of Ambit Biosciences
# Excerpt: as §1, §2
# MAPKAPK5 = target: T8, MAPKAPK5 (Homo sapiens, UniProt Q8IW41)
# T8 construct: purchased KinomeScan, a division of Ambit Biosciences
# T8 sequence (Q8IW41 1-473): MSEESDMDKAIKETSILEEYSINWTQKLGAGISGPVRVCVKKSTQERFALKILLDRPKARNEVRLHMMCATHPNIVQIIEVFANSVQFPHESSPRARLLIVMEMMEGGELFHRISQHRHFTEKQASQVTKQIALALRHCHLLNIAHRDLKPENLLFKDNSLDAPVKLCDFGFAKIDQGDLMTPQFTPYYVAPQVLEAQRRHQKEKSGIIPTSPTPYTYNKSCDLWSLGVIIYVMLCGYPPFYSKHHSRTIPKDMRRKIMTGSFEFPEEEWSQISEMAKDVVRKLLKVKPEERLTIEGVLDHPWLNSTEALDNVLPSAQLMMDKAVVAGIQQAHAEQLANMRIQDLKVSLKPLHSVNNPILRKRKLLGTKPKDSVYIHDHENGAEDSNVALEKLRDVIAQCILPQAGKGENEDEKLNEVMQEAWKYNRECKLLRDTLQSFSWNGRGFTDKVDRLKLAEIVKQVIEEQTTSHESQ
# Excerpt: as §1, §2
# SLK = target: T9, SLK (Homo sapiens, UniProt Q9H2G2)
# T9 construct: purchased KinomeScan, a division of Ambit Biosciences
# T9 sequence (Q9H2G2 whole entry): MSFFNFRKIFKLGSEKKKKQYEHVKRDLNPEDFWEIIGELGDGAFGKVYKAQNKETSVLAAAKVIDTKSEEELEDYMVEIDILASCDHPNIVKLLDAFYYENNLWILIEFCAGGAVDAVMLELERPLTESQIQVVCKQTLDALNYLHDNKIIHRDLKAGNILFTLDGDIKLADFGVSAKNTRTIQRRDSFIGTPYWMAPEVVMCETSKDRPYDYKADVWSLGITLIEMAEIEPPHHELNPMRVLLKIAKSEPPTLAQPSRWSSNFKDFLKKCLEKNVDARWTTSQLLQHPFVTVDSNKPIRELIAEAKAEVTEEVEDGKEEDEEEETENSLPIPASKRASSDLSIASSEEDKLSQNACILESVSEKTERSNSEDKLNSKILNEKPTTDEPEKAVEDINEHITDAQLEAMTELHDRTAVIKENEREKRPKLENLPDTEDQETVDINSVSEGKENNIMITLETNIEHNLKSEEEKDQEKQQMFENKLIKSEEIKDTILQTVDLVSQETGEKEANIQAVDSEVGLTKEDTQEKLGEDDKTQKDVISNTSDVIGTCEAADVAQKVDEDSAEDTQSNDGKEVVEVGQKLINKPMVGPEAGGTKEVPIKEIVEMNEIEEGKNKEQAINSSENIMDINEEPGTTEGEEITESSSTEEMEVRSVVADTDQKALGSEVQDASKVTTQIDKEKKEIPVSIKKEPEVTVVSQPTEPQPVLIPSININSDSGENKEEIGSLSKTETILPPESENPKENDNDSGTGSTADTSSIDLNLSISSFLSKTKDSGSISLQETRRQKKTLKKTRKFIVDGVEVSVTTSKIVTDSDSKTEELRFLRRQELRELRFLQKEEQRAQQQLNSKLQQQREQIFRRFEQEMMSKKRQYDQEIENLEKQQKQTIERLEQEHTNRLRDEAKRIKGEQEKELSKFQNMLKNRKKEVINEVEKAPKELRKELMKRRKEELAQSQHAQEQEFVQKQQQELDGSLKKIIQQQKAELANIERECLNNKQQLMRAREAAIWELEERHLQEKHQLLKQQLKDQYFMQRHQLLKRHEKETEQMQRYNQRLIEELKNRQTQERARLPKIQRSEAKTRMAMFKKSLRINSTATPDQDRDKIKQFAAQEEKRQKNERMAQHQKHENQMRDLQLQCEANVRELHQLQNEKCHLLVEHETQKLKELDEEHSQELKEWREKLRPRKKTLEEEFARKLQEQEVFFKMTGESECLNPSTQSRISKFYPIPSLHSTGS
# Excerpt: as §1, §2
# CDK8 = target: T10, CDK8 (Homo sapiens, UniProt P49336)
# T10 construct: purchased KinomeScan, a division of Ambit Biosciences
# T10 sequence (P49336 whole entry): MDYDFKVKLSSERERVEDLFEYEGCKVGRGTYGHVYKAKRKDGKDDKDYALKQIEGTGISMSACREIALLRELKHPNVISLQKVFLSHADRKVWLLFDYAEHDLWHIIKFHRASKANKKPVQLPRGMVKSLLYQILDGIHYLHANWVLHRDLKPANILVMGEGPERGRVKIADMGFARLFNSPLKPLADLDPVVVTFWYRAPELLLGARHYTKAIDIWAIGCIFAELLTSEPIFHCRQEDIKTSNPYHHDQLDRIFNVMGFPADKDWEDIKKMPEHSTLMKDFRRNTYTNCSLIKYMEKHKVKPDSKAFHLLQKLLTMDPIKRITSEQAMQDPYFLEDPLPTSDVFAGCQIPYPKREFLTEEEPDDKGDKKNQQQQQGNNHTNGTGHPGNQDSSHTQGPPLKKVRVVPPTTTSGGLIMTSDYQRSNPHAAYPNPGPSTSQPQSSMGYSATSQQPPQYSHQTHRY
# Excerpt: as §1, §2
# CLK4 = target: T11, CLK4 (Homo sapiens, UniProt Q9HAZ1)
# T11 construct: purchased KinomeScan, a division of Ambit Biosciences
# T11 sequence (Q9HAZ1 whole entry): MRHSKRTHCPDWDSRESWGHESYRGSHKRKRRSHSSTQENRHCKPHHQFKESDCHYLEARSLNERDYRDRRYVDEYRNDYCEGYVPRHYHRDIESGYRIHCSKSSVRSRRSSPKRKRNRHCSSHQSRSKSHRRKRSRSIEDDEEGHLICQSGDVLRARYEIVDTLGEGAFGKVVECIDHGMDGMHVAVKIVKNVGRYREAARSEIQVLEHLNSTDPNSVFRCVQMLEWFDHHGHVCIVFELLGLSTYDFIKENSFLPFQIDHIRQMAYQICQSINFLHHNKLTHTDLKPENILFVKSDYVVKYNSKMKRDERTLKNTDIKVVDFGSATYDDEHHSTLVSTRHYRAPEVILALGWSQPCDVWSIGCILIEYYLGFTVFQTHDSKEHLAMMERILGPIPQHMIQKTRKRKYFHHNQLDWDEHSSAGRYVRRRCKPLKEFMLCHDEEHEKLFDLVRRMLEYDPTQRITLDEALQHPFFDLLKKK
# Excerpt: as §1, §2
# CSNK1G3 = target: T12, CSNK1G3 (Homo sapiens, UniProt Q9Y6M4)
# T12 construct: purchased KinomeScan, a division of Ambit Biosciences
# Excerpt: as §1, §2
# T1 sequence (P49759 whole entry): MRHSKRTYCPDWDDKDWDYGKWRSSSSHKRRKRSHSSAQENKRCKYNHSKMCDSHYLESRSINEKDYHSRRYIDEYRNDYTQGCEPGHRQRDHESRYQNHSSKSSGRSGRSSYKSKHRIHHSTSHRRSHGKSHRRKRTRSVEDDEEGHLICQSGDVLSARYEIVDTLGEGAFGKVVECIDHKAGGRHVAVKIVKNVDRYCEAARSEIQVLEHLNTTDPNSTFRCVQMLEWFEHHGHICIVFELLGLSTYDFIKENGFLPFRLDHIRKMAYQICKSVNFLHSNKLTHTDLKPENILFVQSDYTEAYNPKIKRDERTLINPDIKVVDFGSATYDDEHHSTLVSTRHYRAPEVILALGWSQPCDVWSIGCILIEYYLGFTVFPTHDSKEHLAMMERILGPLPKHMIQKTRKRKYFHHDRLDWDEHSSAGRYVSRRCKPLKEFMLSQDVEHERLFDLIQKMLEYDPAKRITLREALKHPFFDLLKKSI
structure (smiles),measurement,setting,value
CCCNc1ncnc2ccc(N3CCOCC3)cc12 [compound 46],"POC ligand binding, CLK1",CLK1,48 POC
same,"POC ligand binding, EGFR (G719C)",EGFR (G719C),61 POC
same,"POC ligand binding, HIPK2",HIPK2,30 POC
same,"POC ligand binding, CIT",CIT,86 POC
same,"POC ligand binding, MEK3",MEK3,100 POC
same,"POC ligand binding, MAP4K2",MAP4K2,82 POC
same,"POC ligand binding, HIPK3",HIPK3,34 POC
same,"POC ligand binding, MAPKAPK5",MAPKAPK5,91 POC
same,"POC ligand binding, SLK",SLK,88 POC
same,"POC ligand binding, CDK8",CDK8,100 POC
same,"POC ligand binding, CLK4",CLK4,24 POC
same,"POC ligand binding, CSNK1G3",CSNK1G3,100 POC
